How the values were obtained:
AURKB = AURKB (Homo sapiens, UniProt Q96GD4); experiment: KINOMEscan; type: binding; conditions: 1 μM
CAMK2A = biological target: T1, CAMK2A (Homo sapiens, UniProt Q9UQM7); experiment: KINOMEscan; type: binding; conditions: 1 μM
T1 construct: purchased Eurofins DiscoverX Corporation (KINOMEscan)

CASK = biological target: T2, CASK (Homo sapiens, UniProt O14936); experiment: KINOMEscan; type: binding; conditions: 1 μM
T2 construct: purchased Eurofins DiscoverX Corporation (KINOMEscan)
T2 sequence (O14936 whole entry): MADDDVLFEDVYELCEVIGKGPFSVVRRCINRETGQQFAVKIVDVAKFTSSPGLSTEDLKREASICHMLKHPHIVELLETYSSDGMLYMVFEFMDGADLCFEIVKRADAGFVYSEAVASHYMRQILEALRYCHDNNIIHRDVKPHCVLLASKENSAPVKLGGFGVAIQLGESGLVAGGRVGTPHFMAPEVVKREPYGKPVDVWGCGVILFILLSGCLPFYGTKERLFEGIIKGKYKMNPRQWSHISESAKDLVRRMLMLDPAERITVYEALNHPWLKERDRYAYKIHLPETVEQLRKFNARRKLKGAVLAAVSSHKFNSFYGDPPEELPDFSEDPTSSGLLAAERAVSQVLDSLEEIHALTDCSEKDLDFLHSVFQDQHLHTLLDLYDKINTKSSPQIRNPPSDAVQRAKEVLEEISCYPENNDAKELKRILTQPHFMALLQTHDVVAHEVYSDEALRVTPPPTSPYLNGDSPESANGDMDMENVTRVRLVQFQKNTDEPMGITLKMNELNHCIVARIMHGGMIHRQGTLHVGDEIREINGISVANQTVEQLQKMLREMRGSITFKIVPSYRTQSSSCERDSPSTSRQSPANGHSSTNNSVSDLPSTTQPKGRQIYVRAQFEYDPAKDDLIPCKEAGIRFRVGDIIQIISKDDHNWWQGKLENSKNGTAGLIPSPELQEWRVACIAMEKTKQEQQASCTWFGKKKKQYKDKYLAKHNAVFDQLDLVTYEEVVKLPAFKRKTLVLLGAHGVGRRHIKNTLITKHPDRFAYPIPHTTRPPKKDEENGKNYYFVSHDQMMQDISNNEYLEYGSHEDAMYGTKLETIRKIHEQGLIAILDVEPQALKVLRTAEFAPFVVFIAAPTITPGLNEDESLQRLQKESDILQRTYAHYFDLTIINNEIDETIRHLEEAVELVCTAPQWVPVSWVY

WEE2 = WEE2 (Homo sapiens, UniProt P0C1S8); experiment: KINOMEscan; type: binding; conditions: 1 μM
Chain of WEE2 (P0C1S8 whole entry): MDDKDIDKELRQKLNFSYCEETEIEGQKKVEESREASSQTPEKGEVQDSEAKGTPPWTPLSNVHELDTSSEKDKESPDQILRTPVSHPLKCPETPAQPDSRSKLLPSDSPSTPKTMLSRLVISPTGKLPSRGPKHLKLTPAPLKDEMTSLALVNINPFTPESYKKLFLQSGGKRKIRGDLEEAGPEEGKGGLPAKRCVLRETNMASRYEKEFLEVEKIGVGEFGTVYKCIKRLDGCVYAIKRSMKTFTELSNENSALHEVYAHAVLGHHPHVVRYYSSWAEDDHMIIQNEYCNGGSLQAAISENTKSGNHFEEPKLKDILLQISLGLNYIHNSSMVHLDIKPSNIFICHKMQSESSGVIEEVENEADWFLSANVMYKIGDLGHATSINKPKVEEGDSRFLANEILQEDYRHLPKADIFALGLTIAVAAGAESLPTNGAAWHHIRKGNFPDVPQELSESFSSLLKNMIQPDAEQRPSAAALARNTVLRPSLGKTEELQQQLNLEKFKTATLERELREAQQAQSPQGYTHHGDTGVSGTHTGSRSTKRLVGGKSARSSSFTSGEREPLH

DDR2 = biological target: T3, DDR2 (Homo sapiens, UniProt Q16832); experiment: KINOMEscan; type: binding; conditions: 1 μM
T3 construct: purchased Eurofins DiscoverX Corporation
T3 sequence (Q16832 22-855): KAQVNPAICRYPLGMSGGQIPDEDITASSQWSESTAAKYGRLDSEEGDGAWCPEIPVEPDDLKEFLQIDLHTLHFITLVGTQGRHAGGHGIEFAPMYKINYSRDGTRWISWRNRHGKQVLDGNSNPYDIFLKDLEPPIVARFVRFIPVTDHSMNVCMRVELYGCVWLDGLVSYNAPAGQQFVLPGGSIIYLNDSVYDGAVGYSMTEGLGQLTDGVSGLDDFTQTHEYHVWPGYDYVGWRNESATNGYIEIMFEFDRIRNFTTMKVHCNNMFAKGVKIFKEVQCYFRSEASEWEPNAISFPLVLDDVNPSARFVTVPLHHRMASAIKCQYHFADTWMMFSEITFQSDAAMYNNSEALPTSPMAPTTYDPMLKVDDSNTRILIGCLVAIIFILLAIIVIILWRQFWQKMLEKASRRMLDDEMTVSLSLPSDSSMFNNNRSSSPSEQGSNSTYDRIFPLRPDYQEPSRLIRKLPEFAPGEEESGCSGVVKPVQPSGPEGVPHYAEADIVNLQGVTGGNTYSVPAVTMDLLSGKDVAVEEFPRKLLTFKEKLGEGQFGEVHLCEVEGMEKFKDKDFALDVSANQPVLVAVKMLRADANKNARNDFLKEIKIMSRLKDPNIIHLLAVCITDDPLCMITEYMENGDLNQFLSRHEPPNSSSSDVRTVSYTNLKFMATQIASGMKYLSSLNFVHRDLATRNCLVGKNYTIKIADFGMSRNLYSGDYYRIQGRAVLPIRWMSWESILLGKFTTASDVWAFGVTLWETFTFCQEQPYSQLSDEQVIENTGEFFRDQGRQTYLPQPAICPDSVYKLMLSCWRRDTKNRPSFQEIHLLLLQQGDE

ERK8 = ERK8 (Homo sapiens, UniProt Q8TD08); experiment: KINOMEscan; type: binding; conditions: 1 μM
EPHB3 = EPHB3 (Homo sapiens, UniProt P54753); experiment: KINOMEscan; type: binding; conditions: 1 μM
TGFBR2 = biological target: T4, TGFBR2 (Homo sapiens, UniProt P37173); experiment: KINOMEscan; type: binding; conditions: 1 μM
T4 construct: purchased Eurofins DiscoverX Corporation

MYLK = biological target: T5, MYLK (Homo sapiens, UniProt Q15746); experiment: KINOMEscan; type: binding; conditions: 1 μM
T5 construct: purchased Eurofins DiscoverX Corporation

MET(Y1235D) = biological target: T6, MET(Y1235D) (Homo sapiens, UniProt P08581, Y1235D); experiment: KINOMEscan; type: binding; conditions: 1 μM
T6 construct: purchased Eurofins DiscoverX Corporation

TXK = TXK (Homo sapiens, UniProt P42681); experiment: KINOMEscan; type: binding; conditions: 1 μM
Chain of TXK (P42681 whole entry): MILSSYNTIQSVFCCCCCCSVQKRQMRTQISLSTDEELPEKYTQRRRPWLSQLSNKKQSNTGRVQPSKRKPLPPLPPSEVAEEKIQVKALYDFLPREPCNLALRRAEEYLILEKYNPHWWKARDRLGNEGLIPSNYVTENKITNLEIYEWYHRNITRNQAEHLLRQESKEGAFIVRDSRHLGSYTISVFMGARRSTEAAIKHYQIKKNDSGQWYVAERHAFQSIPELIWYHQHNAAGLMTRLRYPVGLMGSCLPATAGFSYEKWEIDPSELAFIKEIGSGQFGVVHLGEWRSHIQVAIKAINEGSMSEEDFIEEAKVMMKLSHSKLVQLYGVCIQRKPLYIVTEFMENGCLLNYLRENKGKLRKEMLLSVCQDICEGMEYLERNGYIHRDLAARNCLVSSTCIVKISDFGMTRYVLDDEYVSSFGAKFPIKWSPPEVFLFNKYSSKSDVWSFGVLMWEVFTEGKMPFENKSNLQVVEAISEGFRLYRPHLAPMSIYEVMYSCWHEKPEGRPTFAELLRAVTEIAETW

PLK1 = PLK1 (Homo sapiens, UniProt P53350); experiment: KINOMEscan; type: binding; conditions: 1 μM
Chain of PLK1 (P53350 whole entry): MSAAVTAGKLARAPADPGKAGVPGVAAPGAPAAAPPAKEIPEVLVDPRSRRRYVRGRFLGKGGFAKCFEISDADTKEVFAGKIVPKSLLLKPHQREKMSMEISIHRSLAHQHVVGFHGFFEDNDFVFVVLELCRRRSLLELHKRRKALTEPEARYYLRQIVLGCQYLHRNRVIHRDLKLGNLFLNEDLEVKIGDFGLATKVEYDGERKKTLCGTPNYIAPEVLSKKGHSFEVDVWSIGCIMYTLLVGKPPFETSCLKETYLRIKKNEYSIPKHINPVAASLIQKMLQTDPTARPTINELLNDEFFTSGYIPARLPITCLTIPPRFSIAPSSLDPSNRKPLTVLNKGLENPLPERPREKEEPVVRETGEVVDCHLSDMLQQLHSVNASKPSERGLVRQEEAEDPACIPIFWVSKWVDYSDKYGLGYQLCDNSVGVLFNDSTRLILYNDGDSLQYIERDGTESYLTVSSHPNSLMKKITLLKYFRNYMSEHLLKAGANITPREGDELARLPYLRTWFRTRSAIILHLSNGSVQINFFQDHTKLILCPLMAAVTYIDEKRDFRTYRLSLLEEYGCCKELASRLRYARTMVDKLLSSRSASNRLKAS

FLT3 = FLT3 (Homo sapiens, UniProt P36888); experiment: KINOMEscan; type: binding; conditions: 1 μM
WEE1 = WEE1 (Homo sapiens, UniProt P30291); experiment: KINOMEscan; type: binding; conditions: 1 μM
[1] = biological target: T7, EGFR [T790M/L858R] cytoplasmic domain (669–1210) (Homo sapiens, UniProt P00533, L858R/T790M); experiment: Time-dependent kinase inhibition assay (Sox-based substrate); type: biochemical; conditions: LRTM, enzyme 2.0 nM, 1 mM ATP
T7 construct: EGFR [T790M/L858R] cytoplasmic domain (669–1210), GST-tagged, Carna; purchased Carna 08-510
Description: (§1) Biochemical assays were performed with commercially available EGFR WT, cytoplasmic domain (669–1210), GST-tagged, Carna (Cat#/Lot#: 08-115/21CBS-0127H), EGFR [L858R], cytoplasmic domain (668-end), GST-tagged, SignalChem (Cat#/Lot#: E10-122BG/D2411-4), EGFR [T790M/L858R] cytoplasmic domain (669–1210), GST-tagged, Carna (Cat#/Lot#: 08-510/12CBS-0765M). […] BSA was not included in this experiment to prevent interference with irreversible inhibitor characterization via off-target binding. All reactions were run for 240 min at 30 °C. Time-dependent fluorescence from the Sox-based substrate was monitored in PerkinElmer ProxiPlate-384 Plus, white shallow well microplates (Cat. #6008280) Biotek Synergy Neo 2 microplate reader with excitation (360 nm) and emission (485 nm) wavelengths. 4 was dosed between 0 and 10 µM in 24-point curves with 1.5-fold dilutions. Fluorescence, determined with identical reactions but lacking purified enzyme or crude cell lysate was subtracted from the total fluorescence signal for each time point, with both determined in duplicate, to obtain corrected relative fluorescence units (RFU). Corrected RFU values then were plotted vs. time and the reaction velocity for the first ~40 min (initial reaction rates) was determined from the slope using GraphPad Prism (La Jolla, CA) with units of RFU/min.

[2] = biological target: T8, EGFR WT, cytoplasmic domain (669–1210) (Homo sapiens, UniProt P00533); experiment: as above; type: biochemical; conditions: enzyme 2.0 nM, 1 mM ATP
T8 construct: EGFR WT, cytoplasmic domain (669–1210), GST-tagged, Carna; purchased Carna 08-115
Description: as §1

[3] = biological target: T9, EGFR [L858R], cytoplasmic domain (668-end) (Homo sapiens, UniProt P00533, L858R); experiment: as above; type: biochemical; conditions: LR, enzyme 1.0 nM, 1 mM ATP
T9 construct: EGFR [L858R], cytoplasmic domain (668-end), GST-tagged, SignalChem; purchased SignalChem E10-122BG
Description: as §1

MAPKAPK2 = biological target: T10, MAPKAPK2 (Homo sapiens, UniProt P49137); experiment: KINOMEscan; type: binding; conditions: 1 μM
T10 construct: purchased Eurofins DiscoverX Corporation

VEGFR2 = VEGFR2 (Homo sapiens, UniProt P35968); experiment: KINOMEscan; type: binding; conditions: 1 μM
Chain of VEGFR2 (P35968 20-1356): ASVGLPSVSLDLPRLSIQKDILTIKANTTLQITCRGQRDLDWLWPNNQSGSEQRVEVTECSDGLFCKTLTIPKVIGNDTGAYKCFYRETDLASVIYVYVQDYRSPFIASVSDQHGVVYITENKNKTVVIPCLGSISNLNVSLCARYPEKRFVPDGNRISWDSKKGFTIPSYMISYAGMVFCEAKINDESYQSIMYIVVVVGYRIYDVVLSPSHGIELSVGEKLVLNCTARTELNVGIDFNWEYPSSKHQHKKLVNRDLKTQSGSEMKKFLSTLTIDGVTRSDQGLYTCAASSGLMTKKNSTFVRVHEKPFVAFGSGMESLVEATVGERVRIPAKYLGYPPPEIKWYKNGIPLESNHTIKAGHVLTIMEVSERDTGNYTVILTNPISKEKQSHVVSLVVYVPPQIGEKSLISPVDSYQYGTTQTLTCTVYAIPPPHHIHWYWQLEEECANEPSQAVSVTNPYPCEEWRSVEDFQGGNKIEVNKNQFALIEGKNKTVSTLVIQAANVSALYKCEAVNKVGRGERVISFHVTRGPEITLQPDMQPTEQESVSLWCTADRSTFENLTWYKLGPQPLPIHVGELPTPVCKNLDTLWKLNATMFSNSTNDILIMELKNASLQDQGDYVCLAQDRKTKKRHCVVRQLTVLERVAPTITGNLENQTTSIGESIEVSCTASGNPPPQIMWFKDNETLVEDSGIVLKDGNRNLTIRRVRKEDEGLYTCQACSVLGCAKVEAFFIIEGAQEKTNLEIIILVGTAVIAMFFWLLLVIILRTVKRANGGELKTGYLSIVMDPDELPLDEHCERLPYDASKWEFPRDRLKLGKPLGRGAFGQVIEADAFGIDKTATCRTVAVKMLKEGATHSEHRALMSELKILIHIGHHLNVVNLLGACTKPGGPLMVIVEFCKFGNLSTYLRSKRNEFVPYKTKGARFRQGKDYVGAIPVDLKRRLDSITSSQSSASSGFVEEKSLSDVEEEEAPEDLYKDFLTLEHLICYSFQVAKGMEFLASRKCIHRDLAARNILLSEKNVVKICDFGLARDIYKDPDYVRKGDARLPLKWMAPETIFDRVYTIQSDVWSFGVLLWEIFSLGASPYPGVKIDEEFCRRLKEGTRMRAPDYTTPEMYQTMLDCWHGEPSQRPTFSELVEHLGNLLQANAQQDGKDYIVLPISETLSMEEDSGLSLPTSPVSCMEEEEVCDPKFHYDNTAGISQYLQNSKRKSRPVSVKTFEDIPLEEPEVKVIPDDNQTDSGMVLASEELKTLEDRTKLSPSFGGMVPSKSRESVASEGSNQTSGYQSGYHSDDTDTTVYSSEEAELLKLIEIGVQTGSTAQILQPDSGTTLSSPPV

[4] = biological target: T11, ABL1(E255K)-phosphorylated (Homo sapiens, UniProt P00519, E255K); experiment: KINOMEscan; type: binding; conditions: 1 μM
T11 construct: purchased Eurofins DiscoverX Corporation

KIT-autoinhibited = biological target: T12, KIT-autoinhibited (Homo sapiens, UniProt P10721); experiment: KINOMEscan; type: binding; conditions: 1 μM
T12 construct: purchased Eurofins DiscoverX Corporation

CTK = biological target: T13, CTK (Homo sapiens, UniProt P42679); experiment: KINOMEscan; type: binding; conditions: 1 μM
T13 construct: purchased Eurofins DiscoverX Corporation

EGFR(G719C) = EGFR(G719C) (Homo sapiens, UniProt P00533, G719C); experiment: KINOMEscan; type: binding; conditions: 1 μM
PIP5K1A = PIP5K1A (Homo sapiens, UniProt Q99755); experiment: KINOMEscan; type: binding; conditions: 1 μM
FLT3(K663Q) = biological target: T14, FLT3(K663Q) (Homo sapiens, UniProt P36888, K663Q); experiment: KINOMEscan; type: binding; conditions: 1 μM
T14 construct: purchased Eurofins DiscoverX Corporation

PIK3CA(E545A) = PIK3CA(E545A) (Homo sapiens, UniProt P42336, E545A); experiment: KINOMEscan; type: binding; conditions: 1 μM
[5] = biological target: T15, ABL1(Q252H)-phosphorylated (Homo sapiens, UniProt P00519, Q252H); experiment: KINOMEscan; type: binding; conditions: 1 μM
T15 construct: purchased Eurofins DiscoverX Corporation

MLCK = biological target: T16, MLCK (Homo sapiens, UniProt Q32MK0); experiment: KINOMEscan; type: binding; conditions: 1 μM
T16 construct: purchased Eurofins DiscoverX Corporation

MAPKAPK5 = biological target: T17, MAPKAPK5 (Homo sapiens, UniProt Q8IW41); experiment: KINOMEscan; type: binding; conditions: 1 μM
T17 construct: purchased Eurofins DiscoverX Corporation

For C=CC(=O)Nc1ccc(OC)c(Nc2cc(-c3[nH]c(CC)nc3-c3cccc(NC(=O)c4cccc5c4NC(=O)c4ccccc4N5)c3)ccn2)c1 [Compound 4], the POC (AURKB) was 100% of control, the POC (CAMK2A) was 65% of control and the POC (CASK) was 97% of control. For the same compound, the POC (WEE2) was 98% of control, the POC (DDR2) was 100% of control and the POC (ERK8) was 100% of control. The POC (EPHB3) was 100% of control, the POC (TGFBR2) was 75% of control and the POC (MYLK) was 84% of control. The POC (MET(Y1235D)) was 97% of control, the POC (TXK) was 42% of control and the POC (PLK1) was 50% of control. For the same compound, the POC (FLT3) was 100% of control, the POC (WEE1) was 85% of control and the Ki [1] was 1600 ± 100 nM. For the same compound, the kinact [1] was 0.00167 s⁻¹, the kinact/KI [1] was 1070 ± 40 M⁻¹ s⁻¹ and the Ki [2] was 1200 ± 40 nM. For the same compound, the kinact [2] was 0.003 s⁻¹, the kinact/KI [2] was 2500 ± 30 M⁻¹ s⁻¹ and the Ki [3] was 610 ± 30 nM. For the same compound, the kinact [3] was 0.00867 s⁻¹, the kinact/KI [3] was 14100 ± 300 M⁻¹ s⁻¹ and the POC (MAPKAPK2) was 100% of control. The POC (VEGFR2) was 100% of control, the POC [4] was 65% of control and the POC (KIT-autoinhibited) was 100% of control. For the same compound, the POC (CTK) was 54% of control, the POC (EGFR(G719C)) was 6.5% of control and the POC (PIP5K1A) was 75% of control. For the same compound, the POC (FLT3(K663Q)) was 87% of control, the POC (PIK3CA(E545A)) was 100% of control and the POC [5] was 90% of control. The POC (MLCK) was 86% of control and the POC (MAPKAPK5) was 100% of control.
